Source: US20120220562A1, “Anti-Viral Compounds” (ABBOTT LABAORATORIES, priority 2011, published 2012)

tested on: HCV 1b-Con1 replicon; test: HCV 1b-Con1 replicon assay in the presence of 5% FBS; type: cell-based; details: Hepatitis C virus

Structure (SMILES)	EC50 [nM]
COC(=O)N[C@H](C(=O)N1CCC[C@H]1c1nc2cc([C@H]3CC[C@H](c4ccc5[nH]c([C@@H]6CCCN6C(=O)[C@@H](NC(=O)OC)C(C)C)nc5c4)N3c3cc(F)c(N4CCCCC4)cc3F)ccc2[nH]1)C(C)C [Example 4.5, methyl {(2S)-1-[(2S)-2-{5-[(2R,5R)-1-[2,5-difluoro-4-(piperidin-1-yl)phenyl]-5-{2-[(2S)-1-{(2S)-2-[(methoxycarbonyl)amino]-3-methylbutanoyl}pyrrolidin-2-yl]-1H-benzimidazol-5-yl}pyrrolidin-2-yl]-1H-benzimidazol-2-yl}pyrrolidin-1-yl]-3-methyl-1-oxobutan-2-yl}carbamate]	< 0.1
COC(=O)N[C@H](C(=O)N1CCC[C@H]1c1nc2cc([C@H]3CC[C@H](c4ccc5[nH]c([C@@H]6CCCN6C(=O)[C@@H](NC(=O)OC)C(C)C)nc5c4)N3c3cc(F)c(N4CCC(c5ccc(F)c(F)c5)CC4)c(F)c3)ccc2[nH]1)C(C)C [Example 3.44, methyl {(2S)-1-[(2S)-2-{5-[(2R,5R)-1-{4-[4-(3,4-difluorophenyl)piperidin-1-yl]-3,5-difluorophenyl}-5-{2-[(2S)-1-{(2S)-2-[(methoxycarbonyl)amino]-3-methylbutanoyl}pyrrolidin-2-yl]-1H-benzimidazol-5-yl}pyrrolidin-2-yl]-1H-benzimidazol-2-yl}pyrrolidin-1-yl]-3-methyl-1-oxobutan-2-yl}carbamate]	< 0.1
COC(=O)N[C@H](C(=O)N1CCC[C@H]1c1nc2cc([C@H]3CC[C@H](c4cc5nc([C@@H]6CCCN6C(=O)[C@@H](NC(=O)OC)C(C)C)[nH]c5cc4F)N3c3cc(F)c(N4CCC(C5CCCCC5)CC4)c(F)c3)c(F)cc2[nH]1)C(C)C [Example 4.54, methyl {(2S)-1-[(2S)-2-{5[(2R,5R)-1-[4-(4-cyclohexylpiperidin-1-yl)-3,5-difluorophenyl]-5-{6-fluoro-2-[(2S)-1-{(2S)-2-[(methoxycarbonyl)amino]-3-methylbutanoyl}pyrrolidin-2-yl]-1H-benzimidazol-5-yl}pyrrolidin-2-yl]-6-fluoro-1H-benzimidazol-2-yl}pyrrolidin-1-yl]-3-methyl-1-oxobutan-2-yl}carbamate]	< 0.1
COC(=O)N[C@H](C(=O)N1C2CCC(C2)[C@H]1c1nc2cc([C@H]3CC[C@H](c4ccc5[nH]c([C@@H]6C7CCC(C7)N6C(=O)[C@@H](NC(=O)OC)C(C)C)nc5c4)N3c3cc(F)c(N4CCCCC4)c(F)c3)ccc2[nH]1)C(C)C [Example 3.19, methyl {(2S)-1-[(3S)-3-{5-[(2R,5R)-1-[3,5-difluoro-4-(piperidin-1-yl)phenyl]-5-{2-[(3S)-2-{(2S)-2-[(methoxycarbonyl)amino]-3-methylbutanoyl}-2-azabicyclo[2.2.1]hept-3-yl]-1H-benzimidazol-5-yl}pyrrolidin-2-yl]-1H-benzimidazol-2-yl}-2-azabicyclo[2.2.1]hept-2-yl]-3-methyl-1-oxobutan-2-yl}carbamate]	< 0.1
COC(=O)N[C@H](C(=O)N1CCC[C@H]1c1nc2cc([C@@H]3CC[C@@H](c4cc5nc([C@@H]6CCCN6C(=O)[C@@H](NC(=O)OC)[C@@H](C)OC)[nH]c5cc4F)N3c3cc(F)c(N4CCN(c5c(F)cccc5F)CC4)c(F)c3)c(F)cc2[nH]1)[C@@H](C)OC [Example 3.49, methyl {(2S,3R)-1-[(2S)-2-{5-[(2S,5S)-1-{4-[4-(2,6-difluorophenyl)piperazin-1-yl]-3,5-difluorophenyl}-5-(6-fluoro-2-{(2S)-1-[N-(methoxycarbonyl)-O-methyl-L-threonyl]pyrrolidin-2-yl}-1H-benzimidazol-5-yl)pyrrolidin-2-yl]-6-fluoro-1H-benzimidazol-2-yl}pyrrolidin-1-yl]-3-methoxy-1-oxobutan-2-yl}carbamate]	< 0.1
COC(=O)N[C@H](C(=O)N1CCC[C@H]1c1nc2cc([C@H]3CC[C@H](c4cc5nc([C@@H]6CCCN6C(=O)[C@@H](NC(=O)OC)[C@@H](C)OC)[nH]c5cc4F)N3c3cc(F)c(N4CCC(c5ccccc5)CC4)c(F)c3)c(F)cc2[nH]1)[C@@H](C)OC [Example 4.38, methyl {(2S,3R)-1-[(2S)-2-{5-[(2R,5R)-1-[3,5-difluoro-4-(4-phenylpiperidin-1-yl)phenyl]-5-(6-fluoro-2-{(2S)-1-[N-(methoxycarbonyl)-O-methyl-L-threonyl]pyrrolidin-2-yl}-1H-benzimidazol-5-yl)pyrrolidin-2-yl]-6-fluoro-1H-benzimidazol-2-yl}pyrrolidin-1-yl]-3-methoxy-1-oxobutan-2-yl}carbamate]	< 0.1
COC(=O)N[C@H](C(=O)N1CCC[C@H]1c1nc2ccc([C@H]3CC[C@H](c4ccc5nc([C@@H]6CCCN6C(=O)[C@@H](NC(=O)OC)C(C)C)[nH]c5c4)N3c3c(F)c(F)c(N4CCCCC4)c(F)c3F)cc2[nH]1)C(C)C [Example 2.6, methyl {(2S)-1-[(2S)-2-(6-{(2R,5R)-5-{2-[(2S)-1-{(2S)-2-[(methoxycarbonyl)amino]-3-methylbutanoyl}pyrrolidin-2-yl]-1H-benzimidazol-6-yl}-1-[2,3,5,6-tetrafluoro-4-(piperidin-1-yl)phenyl]pyrrolidin-2-yl}-1H-benzimidazol-2-yl)pyrrolidin-1-yl]-3-methyl-1-oxobutan-2-yl}carbamate]	< 0.1
COC(=O)N[C@H](C(=O)N1CCC[C@H]1c1nc2cc([C@H]3CC[C@H](c4ccc5nc([C@@H]6CCCN6C(=O)[C@@H](NC(=O)OC)C(C)C)[nH]c5c4)N3c3cc(F)c(N4CCCC(c5ccccc5)C4)c(F)c3)ccc2[nH]1)C(C)C (stereo partly drawn) [Example 4.32, methyl {(2S)-1-[(2S)-2-{5-[(2R,5R)-1-[3,5-difluoro-4-(3-phenylpiperidin-1-yl)phenyl]-5-{2-[(2S)-1-{(2S)-2-[(methoxycarbonyl)amino]-3-methylbutanoyl}pyrrolidin-2-yl]-1H-benzimidazol-6-yl}pyrrolidin-2-yl]-1H-benzimidazol-2-yl}pyrrolidin-1-yl]-3-methyl-1-oxobutan-2-yl}carbamate]	< 0.1
COC(=O)N[C@H](C(=O)N1CCC[C@H]1c1nc2cc([C@H]3CC[C@H](c4cc5nc([C@@H]6CCCN6C(=O)[C@@H](NC(=O)OC)C6CCOCC6)[nH]c5cc4F)N3c3cc(F)c(N4CCCCC4)c(F)c3)c(F)cc2[nH]1)C1CCOCC1 [Example 3.35, dimethyl ({(2R,5R)-1-[3,5-difluoro-4-(piperidin-1-yl)phenyl]pyrrolidine-2,5-diyl}bis {(6-fluoro-1H-benzimidazole-5,2-diyl)(2S)pyrrolidine-2,1-diyl[(1S)-2-oxo-1-(tetrahydro-2H-pyran-4-yl)ethane-2,1-diyl]})biscarbamate]	< 0.1
COC(=O)N[C@H](C(=O)N1CCC[C@H]1c1nc2ccc([C@H]3CC[C@H](c4ccc5nc([C@@H]6CCCN6C(=O)[C@@H](NC(=O)OC)C(C)C)[nH]c5c4)N3c3cc(F)c(N4CCC(c5ccc6ccccc6c5)CC4)c(F)c3)cc2[nH]1)C(C)C [Example 2.12, methyl {(2S)-1-[(2S)-2-{5-[(2R,5R)-1-{3,5-difluoro-4-[4-(2-naphthyl)piperidin-1-yl]phenyl}-5-{2-[(2S)-1-{(2S)-2-[(methoxycarbonyl)amino]-3-methylbutanoyl}pyrrolidin-2-yl]-1H-benzimidazol-5-yl}pyrrolidin-2-yl]-1H-benzimidazol-2-yl}pyrrolidin-1-yl]-3-methyl-1-oxobutan-2-yl}carbamate]	< 0.1
